Test results: PMC12298876, “Angiotensin-Converting Enzyme Inhibitory Activity of Selected Phenolic Acids, Flavonoids, Their O-Glucosides, and Low-Molecular-Weight Phenolic Metabolites in Relation to Their Oxidation Potentials” (Metabolites, 2025)
Where two headings read alike, the source gives them in different places. Marks after values point to notes of the source that are not given here.

Tests used:
[1] = target: T1, Angiotensin-converting enzymes (ACE) from porcine kidneys (EC 3.4.15.1) (Sus scrofa, UniProt F1RRW5); experiment: biochemical; details: for lower IC50 in relation to the respective aglycone: glycoside vs aglycon
T1 construct: Angiotensin-converting enzymes (ACE) from porcine kidneys (EC 3.4.15.1) were purchased from Sigma-Aldrich; purchased Sigma-Aldrich (St. Louis, MO, USA); host or cells: porcine kidneys (tissue-derived enzyme)
T1 sequence (F1RRW5 34-1309): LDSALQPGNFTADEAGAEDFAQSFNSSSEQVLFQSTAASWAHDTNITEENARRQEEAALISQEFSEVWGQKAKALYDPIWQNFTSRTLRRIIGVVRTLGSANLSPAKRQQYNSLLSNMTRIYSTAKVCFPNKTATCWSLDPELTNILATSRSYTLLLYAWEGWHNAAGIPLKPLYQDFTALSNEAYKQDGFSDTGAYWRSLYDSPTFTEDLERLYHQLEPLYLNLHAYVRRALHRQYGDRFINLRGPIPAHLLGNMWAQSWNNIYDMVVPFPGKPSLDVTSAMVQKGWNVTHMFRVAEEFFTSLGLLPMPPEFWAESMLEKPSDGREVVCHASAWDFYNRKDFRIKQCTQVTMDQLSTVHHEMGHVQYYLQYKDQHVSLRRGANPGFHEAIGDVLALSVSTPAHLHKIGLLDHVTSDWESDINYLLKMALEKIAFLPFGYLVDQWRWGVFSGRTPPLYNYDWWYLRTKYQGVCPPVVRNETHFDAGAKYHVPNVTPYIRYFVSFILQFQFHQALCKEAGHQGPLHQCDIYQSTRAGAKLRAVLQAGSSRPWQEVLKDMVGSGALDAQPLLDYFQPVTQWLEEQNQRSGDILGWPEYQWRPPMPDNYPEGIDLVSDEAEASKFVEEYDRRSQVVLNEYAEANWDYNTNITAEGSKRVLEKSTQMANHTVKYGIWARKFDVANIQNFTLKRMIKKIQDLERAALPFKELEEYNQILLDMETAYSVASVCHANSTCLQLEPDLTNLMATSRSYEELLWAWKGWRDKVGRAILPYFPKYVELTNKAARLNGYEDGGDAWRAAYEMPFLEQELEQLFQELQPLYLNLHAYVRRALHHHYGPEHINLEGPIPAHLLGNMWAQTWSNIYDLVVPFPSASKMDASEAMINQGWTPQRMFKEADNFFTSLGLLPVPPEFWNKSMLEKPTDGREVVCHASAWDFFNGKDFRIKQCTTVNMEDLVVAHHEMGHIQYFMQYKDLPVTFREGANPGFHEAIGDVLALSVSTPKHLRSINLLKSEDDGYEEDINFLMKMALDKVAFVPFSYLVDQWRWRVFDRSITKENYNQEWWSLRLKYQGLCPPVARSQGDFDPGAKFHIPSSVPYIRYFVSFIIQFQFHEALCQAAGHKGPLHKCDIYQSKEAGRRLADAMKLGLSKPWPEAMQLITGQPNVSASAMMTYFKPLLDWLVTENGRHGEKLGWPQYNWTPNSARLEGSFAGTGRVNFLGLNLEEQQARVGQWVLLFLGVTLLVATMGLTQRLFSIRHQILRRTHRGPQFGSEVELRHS
Description: Angiotensin-converting enzymes (ACE) from porcine kidneys (EC 3.4.15.1) were purchased from Sigma-Aldrich (St. Louis, MO, USA). A three-tris-base buffer was as follows: buffer A: 300 mM Tris-base buffer (pH 8.3) with 2 mM ZnCl2; buffer B: 150 mM Tris-base buffer (pH 8,3); and buffer C: 150 mM Tris-base buffer (pH 8.3) with […] NaCl. The substrate o-aminobenzoylglycyl-p-nitorphenylalanylproline (Abz-Gly-Phe(NO2)-Pro) was obtained from BACHEM (Bubendorf, Switzerland). Standards of phenolic acids, flavonoids, glucosides, and low-molecular-weight phenolic metabolites were obtained from Sigma-Aldrich (St. Louis, MO, USA) and Extrasynthese (Genay, France). Water was purified using the Mili-Q system (Milipore, Bedford, MA, USA).
Stock solutions at 1 mM of selected phenolic acids, flavonoids, their O-glucosides, and low-molecular-weight phenolic metabolites were prepared in 80% methanol. The concentration was confirmed by a UV measurement according to Franke et al.. A wide range of concentrations of each compound was prepared by serial dilutions in deionized water to determine the IC50 value. […] The ACE inhibitory activity was obtained from three repetitions (n = 3) for each concentration.
Angiotensin-converting enzyme (ACE) activity inhibitory assay was performed according to the method of Sentandreu and Toldra. The procedure was based on the hydrolysis of the internally quenched substrate o-aminobenzoylglycyl-p-nitorphenylalanylproline (Abz-Gly-Phe(NO2)-Pro) by the reaction of ACE. The fluorescence generated by the liberation of the product (the o-aminobenzoylglycine group) was read in a microplate multiscan fluorometer. The production of fluorescence was inhibited by the presence of functional compounds with an ACE inhibitory effect. The fluorescence was measured immediately after mixing (0 min) and then after 30 min of reaction at an excitation of 365 nm and an emission of 405 nm. To calculate the % of inhibition of ACE, the following equation was used:Relative ACE activity% = 100 − (ΔRFUsample × 100/ΔRFUnegative control), where ΔRFU = RFU at time 30 – RFU at time 0.

[2] = First anodic oxidation potential by differential pulse voltammetry (DPV); assay type: physicochemical; details: for Anodic Peak Potential Epa: DPV, first anodic peak, 0.25 mM standard in 0.1 M Britton-Robinson buffer pH 6.0 in 80% methanol, glassy carbon vs Ag/AgCl, 100 mV/s
Description: A potentiostat/galvanostat G 750 (Gamry Instruments, Warminster, USA) was used for voltametric experiments. A conventional three-electrode system: a 3 mm diameter glassy carbon working electrode (BAS MF-2012), an Ag/AgCl electrode as a reference electrode, and a platinum as counter electrode, was used in the study. Differential pulse voltametric experiments were performed with phenolic acids and flavonoids prepared in a 1:1 (v/v) mixture of 500 µM standard solution and […] Britton-Robinson (B-R) buffer (pH 6.0 in 80% methanol), which also served as a supporting electrolyte. The voltametric experiments were performed at room temperature using an electrochemical cell (volume 200 µL), to which the analyzed standard solution, mixed previously with the buffer solution, was introduced. The differential pulse voltammograms were acquired in the range of −100 to 1300 mV at a scanning rate of 100 mV/s. Before use, the surface of the glassy carbon electrode was carefully polished with 0.05 µm alumina paste, ultrasonically rinsed in deionized water, and then washed with methanol. This procedure was repeated after each cycle. For test purposes, the first anodic oxidation potential was recorded (mV).

[3] = system: formation of advanced glycation end products; set-up: method as in PMID 27709826; details: cited from earlier work
[4] = system: ACE; set-up: method as in PMID 23185345; details: same fluorometric method as this study; read-out: IC50 (ACE inhibition); cited from earlier work
[5] = system: ACE; details: cited from earlier work; for IC50: read-out: IC50 (ACE inhibitory activity)
[6] = porcine kidney ACE, substrate Abz-Gly-Phe(NO2)-Pro, fluorescence after 30 min, mean ± SD, read-out: IC50 Value (ACE inhibitory activity)
[7] = IC50 Value (ACE inhibitory activity), porcine kidney ACE, substrate Abz-Gly-Phe(NO2)-Pro, fluorescence after 30 min, mean ± SD
[8] = values of this study restated in mM in the discussion, read-out: IC50 (ACE inhibition)

Row | IC50 [1, 6] [mM] | Anodic Peak Potential Epa [2] | SMILES | further results
1 | 0.6728 ± 0.00493 | 432 ± 6 ^g mV | O=C(O)Cc1ccc(O)c(O)c1 [3,4-DHPAA, 3,4-dihydroxyphenylacetic acid] | inhibitory activity against the formation of advanced glycation end products [3]: strong inhibitory activity
2 | 9.11 | 397 ± 8 ^e mV | O=C(O)/C=C/c1ccc(O)c(O)c1 [Caffeic acid] | IC50 [1, 8]: 9.11 ± 0.06 mM; Anodic Peak Potential Epa ([2]; listed as caffeic acid): 397 mV; IC50 [5]: 8970 ± 80 µM
3 | 0.132 ± 0.00247 | 394 ± 4 ^g mV | O=c1c(O)c(-c2ccc(O)cc2)oc2cc(O)cc(O)c12 [Kaempferol] | IC50 [4]: 178 µM
4 | 0.0771 ± 0.00255 | 407 ± 5 ^f mV | O=c1cc(-c2ccc(O)c(O)c2)oc2cc(O)cc(O)c12 [Luteolin] | IC50 lower than the value for naringenin ([1]; ACE inhibition): fivefold; IC50 [4]: 23 µM
5 | 0.726 ± 0.00571 | 574 ± 5 ^f mV | COC(=O)CCc1ccc(O)cc1 [MET, 3-(4-hydroxyphenyl)propionic methyl ester] | antioxidant power class based on the first oxidation potential ([2]; low-molecular-weight phenolic metabolites, classes according to Blasco et al. [47]): moderate antioxidant power (moderate antioxidant power (0.3 V < Epa < 0.8 V))
6 | 0.391 | 819 ± 7 ^bc mV | O=C1C[C@@H](c2ccc(O)cc2)Oc2cc(O)cc(O)c21 [Naringenin] | –
7 | 0.293 ± 0.0034 | 228 ± 5 ^j mV | Oc1ccc(-c2[o+]c3cc(O)cc(O)c3cc2O)cc1 [Pelargonidin] | –
8 | 0.121 ± 0.00156 | 330 ± 4 ^g mV | O=c1c(O)c(-c2ccc(O)c(O)c2)oc2cc(O)cc(O)c12 [Quercetin] | –
9 | 2.76 ± 0.0363 | 731 ± 9 ^a mV | COc1cc(C(=O)O)cc(OC)c1O [Syringic acid] | –
10 | 4.11 ± 0.0483 | 748 ± 10 ^a mV | COc1cc(C(=O)O)ccc1O [Vanillic acid] | Anodic Peak Potential Epa ([2]; listed as vanillic acid): 748 mV
11 | 0.315 ± 0.0098 | 672 ± 10 ^b mV | O=C(O)C=Cc1ccc(O)cc1 [p-Coumaric acid] | Anodic Peak Potential Epa ([2]; listed as p-coumaric acid): 672 mV
12 | – | – | O=C(CCc1ccc(O)cc1)c1c(O)cc(O)cc1O [phloretin] | IC50 higher than the IC50 of phloretin 2′-O-glucose [5]: 25%; IC50 [5]: 286.8 ± 2.54 µM
13 | – | – | C[C@@H]1O[C@@H](O[C@H]2[C@H](Oc3cc(O)c4c(=O)cc(-c5ccc(O)cc5)oc4c3)O[C@H](CO)[C@@H](O)[C@@H]2O)[C@H](O)[C@H](O)[C@H]1O [rhoifolin, reference compound] | IC50 [4]: 183 µM

Row | SMILES | IC50 [1, 6] [mM] | Anodic Peak Potential Epa [2] | further results
14 | O=c1cc(-c2ccc(O)cc2)oc2cc(O)cc(O)c12 [Apigenin] | – | 810 ± 6 ^c mV | IC50 [1, 7]: 0.337 ± 0.00372 mM; IC50 [4]: 196 µM
15 | O=C1CC(c2ccc(O)cc2)Oc2cc(OC3OC(CO)C(O)C(O)C3O)cc(O)c21 (stereo not drawn) [Naringenin-7-O-glucoside] | 0.3572 ± 0.00199 | 830 ± 8 ^ab mV | lower IC50 in relation to the respective aglycone ([1]; ACE inhibition): 9%
16 | OCC1OC(Oc2cc3c(O)cc(O)cc3[o+]c2-c2ccc(O)cc2)C(O)C(O)C1O (stereo not drawn) [Pelargonidin-3-O-glucoside] | 0.3769 ± 0.00261 | 473 ± 5 ^d mV | higher value of IC50 as compared to the IC50 of the respective aglycon ([1]; ACE inhibition, glucoside vs aglycon): 29%
17 | O=C(O)c1ccc(O)c(O)c1 [Protocatechuic acid] | 6.235 ± 0.042 | 417 ± 12 ^e mV | IC50 [1, 8]: 6.24 mM; Anodic Peak Potential Epa ([2]; listed as protocatechuic acid): 417 mV
18 | C[C@@H]1O[C@@H](OC[C@H]2O[C@@H](Oc3c(-c4ccc(O)c(O)c4)oc4cc(O)cc(O)c4c3=O)[C@H](O)[C@@H](O)[C@@H]2O)[C@H](O)[C@H](O)[C@H]1O [Rutin, quercetin-O-3-rutinoside] | – | 389 ± 4 ^g mV | lower IC50 in relation to the respective aglycone ([1]; ACE inhibition): 50%; IC50 [1, 7]: 0.0593 mM; IC50 [4]: 64 µM
19 | COc1cc(/C=C/C(=O)O)cc(OC)c1O [Sinapic acid] | – | 618 ± 7 ^c mV | IC50 [1, 7]: 0.493 ± 0.00614 mM
